The text below walks through data of patent publication US12583884B2, “3beta-(benzyloxy)-17alpha-methyl-pregn-5-en-20-one for use in the treatment of cognitive disorders” (AELIS FARMA, priority 2018, dated 2026).

Data set [1] has as its target T1, wild-type human CB1 receptor (Homo sapiens, UniProt P21554).
T1 construct: expressed in transfected cells; host or cells: HEK-293 (transient)
The data set can be described thus: THC-induced inhibition of cellular respiration in HEK-293-hCB1-WT. Particulars: THC 1 μM. In kind it is cell-based. The method, then: In a first study (FIG. 5A), HEK-293 cells were transiently transfected with the wild-type hCB1-expressing plasmid (HEK-293-hCB1-WT). […] After 15 min of incubation, THC (0; 1 μM, dissolved in EtOH, 0.0034%) was added in the culture dishes for 30 minutes.
Cellular respiration was measured in a calibrated oxygraph equipped with a Clark electrode. Oxygen consumption (OC) rate was used to measure cellular respiration.

Data set [2] has as its system Ts65Dn mice. The experiment in a line: Short-term sequential object recognition, Down syndrome model. It is filed as in vivo, mouse. Particulars: 0.6 μg/ml in drinking water, 2 months, delays 5 and 35 min. The protocol:
Mice were allowed to explore 3 different objects (A, B, C) presented one after the other and following one of the two possible sequences: A-C-C-B-A and A-B-C-C-A. In an open field, mice were exposed to object A for 5 min and then placed back into their home cage. After a delay of 5 minutes, mice were exposed to object B or C for 5 min and then placed back into their home cage, and so on. Consequently, the retention delay between two presentations of object C was of 5 minutes whereas the retention delay between two presentations of object A was of 35 minutes. The time spent exploring object A or C at the first presentation was compared with the time exploring the same object at the second presentation. This parameter is used to evaluate object recognition performances.
Before the object recognition procedure, mice were tested in the radial maze.

For data set [3], the system named is Ts65Dn mice. The experiment in a line: Working memory (radial maze), Down syndrome model. It is filed as in vivo, mouse. The following applies: 0.06 μg/ml in drinking water. The protocol: The working memory task was performed using 8-arm radial mazes described in Example 3a. Food restriction and habituation procedure were performed as described in Example 3a. The working memory procedure began 24 h after the last habituation session. Each mouse was submitted to 15 daily learning sessions (5 blocks of 3 days) made of 23 trials each. Six arms out of eight were used during the working memory test (3 pairs (A, B or C) of adjacent arms).
At the beginning of each daily session, the mouse was placed at the center of the maze with no access to the arms. The doors of the first pair of arms then opened giving access to both arms of the pair. Once the mouse had visited one of the arms and goes back to the central platform, the door closed, and the animal was confined in the central platform for 10 sec (inter-trial interval, ITI) before two doors opened again giving access to a pair of arms. Once the animal had visited one of the arms and returns to the central platform the doors close again for 10 sec before the next trial. Within each session, the mouse was submitted to repeated and successive presentations of the 3 pairs of arms one at a time. At the first presentation of each arm pair the food reward was present in both arms. […]

Data set [4] is described as follows: Anxiety-like behaviors in the elevated plus maze. In kind it is in vivo, mouse. An excerpt: The EPM apparatus was made of grey polyvinyl chloride and consisted of four elevated arms. The arms (height, 60 cm; length, 37 cm; width, 6 cm; each) were arranged in a cross-like disposition, with two opposite arms being enclosed by walls and the two other arms being open. A video camera placed on the top of the maze and connected to a tracking system allowed the automatic scoring of the locomotion of the mice in the maze. The light intensity of the maze was set at 45 lux in the open arms. One mouse was placed in the center of the EPM and was then free to explore the entire maze for 5 minutes. The time spent and the number of entries into the open arms and closed arms were measured. A decrease in the percentages of visits and/or of the time spent in open arms reflects an increase in anxiety levels.
Rimonabant was dissolved in a vehicle containing DMSO, (2%), Tween80 (2%) in injectable NaCl 0.9%. Within the same study, the effect of intraperitoneal injection of rimonabant at 10 mg/kg or of vehicle alone (10 ml/kg) was studied in the EPM in 2-month-old male C57B1/6J mice (n=10 per group). The EPM test was performed 30 minutes after rimonabant injection.

Data set [5] can be described thus: Depressive-like behaviors in the sucrose preference test. In kind it is in vivo, mouse. The method, then:
Sucrose preference was tested in the home cages of the mice. A sucrose solution containing 2% of sucrose (D(+) saccharose) in tap water was poured in plastic graduated bottles (volume in each bottle, 45 ml). Identical bottles were filled with tap water. All the mice were first habituated to the bottles and to the sucrose solution. One bottle containing water and one bottle containing sucrose were placed in the hopper of each home cage. […] The mice had access to the solutions from the beginning of the dark phase, at the daily peak of food and water consumption (from 7 pm to 8.30 am). The sucrose preference test was performed seven days later. Water and sucrose solutions were presented as described for habituation except that mice had access to the solutions from 12 pm to 10 pm. At each time point, the bottles were weighed, 1 g corresponding to 1 ml. The intake volume was calculated by subtracting the initial bottle weight to the final bottle weight.
15 or 30 mg/kg or of vehicle (corn oil; 5 ml/kg) was studied in the sucrose preference test in 2-month-old male C57B1/6J mice (n=7-8 per group). Rimonabant was dissolved in a vehicle containing dimethylsulfoxide (DMSO, 2%), Tween80 (2%) in injectable NaCl 0.9%. Within the same study, the effect of repeated intraperitoneal injections of rimonabant at 10 mg/kg or of vehicle alone (10 ml/kg) was studied in the sucrose preference test in 2-month-old male C57B1/6J mice (n=8 per group).

Data set [6] is described as follows: Spontaneous behaviors in the home cage (video analysis). In kind it is in vivo, mouse. Particulars: 30 mg/kg per os; 24 hours video analysis.
Data set [7] is described as follows: 7-day oral safety study in rats. It is filed as in vivo, Sprague-Dawley rats. The method, then:
Morbidity/mortality checks were performed twice daily. Clinical observations were performed before the first dosing and then daily. Functional and neurobehavioral tests were performed before the first dosing and on the last day of treatment. Body weight was recorded on Day-1, Day-3, Day-5 and Day-7. Food consumption was measured weekly.
Blood samples for haematology parameters and clinical chemistry analysis were collected on the day of necropsy (Day-8).
Animals were sacrificed on Day-8. Selected organs were weighed, fixed, preserved at necropsy and examined histopathologically.

For data set [8], the target named is T2, Vasoactive intestinal peptide PAC1-PACAP (Homo sapiens, UniProt P41586).
T2 construct: CEREP (contract panel)
The experiment in a line: CEREP binding profile: PAC1. An excerpt:
The CEREP High-throughput profile consists of a broad collection of 80 transmembrane and soluble receptors, ion channels and G-Protein coupled receptors.

[9] abbreviates: male mice, highest dose tested 30 mg/kg.

As usually defined, the % Inhibition is the drop in the measured response relative to a control, in per cent. A high value points to strong suppression. The term MTD denotes the largest dose that counted as tolerated. The inhibition is the drop in the measured response relative to a control, in per cent.

T1 sequence (P21554 whole entry): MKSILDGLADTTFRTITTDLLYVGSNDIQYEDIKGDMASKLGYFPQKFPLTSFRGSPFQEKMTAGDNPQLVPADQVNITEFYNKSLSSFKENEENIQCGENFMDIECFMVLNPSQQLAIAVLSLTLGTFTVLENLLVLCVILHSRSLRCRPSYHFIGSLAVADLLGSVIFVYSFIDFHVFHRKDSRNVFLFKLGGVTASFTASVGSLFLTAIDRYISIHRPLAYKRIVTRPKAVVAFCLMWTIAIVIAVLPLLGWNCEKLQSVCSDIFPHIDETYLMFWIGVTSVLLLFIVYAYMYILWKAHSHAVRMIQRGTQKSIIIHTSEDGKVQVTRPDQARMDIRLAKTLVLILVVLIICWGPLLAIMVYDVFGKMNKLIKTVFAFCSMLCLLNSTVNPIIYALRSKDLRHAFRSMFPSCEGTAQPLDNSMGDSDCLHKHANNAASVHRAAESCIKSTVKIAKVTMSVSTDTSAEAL
T2 sequence (P41586 21-468): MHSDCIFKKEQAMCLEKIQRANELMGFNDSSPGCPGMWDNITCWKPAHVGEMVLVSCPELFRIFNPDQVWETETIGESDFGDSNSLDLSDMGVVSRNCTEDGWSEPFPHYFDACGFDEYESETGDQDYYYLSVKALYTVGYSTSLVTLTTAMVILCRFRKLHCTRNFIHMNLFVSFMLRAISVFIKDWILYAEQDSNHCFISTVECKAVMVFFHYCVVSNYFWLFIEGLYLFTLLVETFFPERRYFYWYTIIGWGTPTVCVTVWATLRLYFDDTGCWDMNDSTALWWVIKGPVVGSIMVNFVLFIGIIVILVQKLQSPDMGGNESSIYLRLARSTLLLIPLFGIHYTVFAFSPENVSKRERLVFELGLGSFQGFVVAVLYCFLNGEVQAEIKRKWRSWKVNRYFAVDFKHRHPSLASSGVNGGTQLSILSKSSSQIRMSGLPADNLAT

As for `CC(=O)[C@@]1(C)CC[C@H]2[C@@H]3CC=C4C[C@@H](OCc5ccccc5)CC[C@]4(C)[C@H]3CC[C@@]21C` [3Bn17MeP, 3β-benzyloxy, 17α-methyl-pregn-5-en-20-one], in data set [1] (HEK-293-hCB1), the ID100 is 50 nM. Also, the “% Inhibition” value in data set [1] (HEK-293-hCB1, maximal inhibition of THC effect) is listed as 100%. The “Concentration with significant block of THC-induced inhibition of cellular respiration” value in data set [1] (tested 1, 2.5, 5, 50 and 100 nM, Tukey's test) was at least 2.5 nM. Also, in the data set with Ts65Dn mice [2], the “Exploration of the familiar object (short-term sequential object recognition)” value was “explored significantly less the familiar object after 5 and 35 minutes”. Besides, the “Correct responses (working memory)” value in the data set on Ts65Dn mice [3] is given as “increased correct responses in Ts65Dn as compared to vehicle mice that reached the level of WT”. Further, the “Percentage of time spent and of visits in the open arms” value in data set [4] (acute 30 mg/kg per os, 3 hours after administration) is listed as “had no effect”. Moreover, the “Effect: increase in anxiety-like behaviors (acute administration)” value in data set [4] (setting [9]) was “No”. The Sucrose intake entry in data set [5] (0.05, 5, 15, 30 mg/kg per os once a day, 28 days) is listed as “had no effect on sucrose intake”. Moreover, the “Effect: increase in depression-related behaviors (repeated administration)” value in data set [5] (setting [9]) was “No”. The “Effects on spontaneous behaviors per se” value in data set [6] is “no detectable effects”. Moreover, in data set [7] (20 mg/kg per os, 7 days), the Histopathological changes entry was “not associated with any histopathological changes”, the Total protein level entry is “tendency to lower total protein level” and the Triglyceride level entry is given as “higher triglyceride level”. The Triglyceride level entry in data set [7] (20 mg/kg per os, 7 days, females) is given as “tendency to a lower triglyceride level”. The “Red blood cell counts” value in data set [7] (20 mg/kg per os, 7 days, males) is listed as “slight tendency to a lower red blood cell counts”. Also, the “White blood cell counts” value in data set [7] (20 mg/kg per os, 7 days, males and females) was “tendency to a lower white blood cell counts”. Also, the Signs of toxicity result in data set [7] (20 mg/kg/day per os, 7 consecutive days) was “did not induce any sign of toxicity”. Moreover, the MTD at 7 days in data set [7] (both sexes, Sprague-Dawley, rat, in vivo, oral, 20 mg/kg, repeated treatment at a single dose, 7 days per os, read-out: Maximum tolerated dose (MTD)) was over 20 mg/kg/day.

Take `CC(=O)[C@H]1CC[C@H]2[C@@H]3CC=C4C[C@@H](O)CC[C@]4(C)[C@H]3CC[C@]12C` [pregnenolone, reference compound]: the inhibition at 10 µM in data set [8] was -25%.
